O=c1cc(-c2ccc(O)cc2)oc2cc(O)cc(O)c12
solubility (mole fraction)
Details	in acetone	in ethanol	in ethyl acetate	in methanol	in n-butanol	in n-propanol	in water
288.2 K	0.000338	0.000244	0.000172	0.000118	0.000478	0.000343	7e-07
298.2 K	0.000367	0.000295	0.000239	0.000148	0.000568	0.000401	1.03e-06
308.2 K	0.000451	0.000346	0.000323	0.000179	0.0007	0.000473	1.57e-06
318.2 K	0.00054	0.000397	0.000442	0.000219	0.000822	0.000564	2.11e-06
328.2 K	0.000654	0.000449	0.000548	0.000254	0.000934	0.000677	2.81e-06

From BigSolDB 2.1
